Columns and labels:
[1] = Liver microsome metabolic stability assay; conditions: mouse, microsomes
[2] = Plasma metabolic stability assay; format: in vitro ADME; conditions: mouse plasma, 37°C, 120 min incubation
Method: 495 µL of plasma was placed in a 96-well plate and pre-incubated at 37°C for 5 min.

[3] = system: JFCR39 panel of 39 human tumor cell lines; assay: JFCR39 panel growth inhibition, panel statistics; format: cell-based; conditions: Homo sapiens; JFCR39 panel; read-out: mean GI50 across all 39 cell lines
Method: JFCR39 drug discovery system was used to measure the growth inhibitory activities and identify the target of KTC1101. The JFCR39 panel consists of 39 cell lines seeded in 96-well plates. After 48-h treatment with KTC1101, cell growth was measured using the sulforhodamine B assay. […] The deviation of log GI50 for each cell line from the average log GI50 across the JFCR39 panel was plotted as a fingerprint. MG-MID (mean of Log GI50 values) represents the average log GI50 for all 39 cell lines. The most sensitive and least sensitive cell lines were identified by calculating the difference in their log GI50 values (Range) and the difference between the most sensitive cell line and the average GI50 on the JFCR39 panel (Delta). The fingerprint of KTC1101 was compared with the fingerprints of reference compounds in the database. The Pearson correlation coefficient (r) was calculated (n = 39).

## Cc1ncc2n1-c1ccc(Cl)cc1C(c1ccccc1F)=NC2 [Midazolam, reference compound]
[1]
  half-life at 1 µM: 1.24 min
  microsomal CLint at 1 µM: 1120 µL/min/mg

## CCN(CC)CCOC(=O)c1ccc(N)cc1 [Procaine, reference compound]
[2]
  half-life at 1 µM: 37.8 min

## FC(F)c1nc2ccccc2n1-c1nc(N2CCOCC2)nc(N2CCOCC2)n1 [ZSTK474, reference compound]
[3]
  GI50: 320 nM
